What was measured:
TNF = TNF inhibition by Compound A; type: cell-based
Jurkat IL-2 = Jurkat IL-2 induction by Compound A; type: cell-based
IRF4 [1] = assay: IRF4 protein level in H929 cells (Western blot); type: cell-based
Excerpt: In H929 cells, the cell cycle arrest in G1 phase by the drugs coincides with a reduction of tumor suppressor, pRb, phosphorylation and the oncogene and myeloma survival factor IRF4.

T cells = assay: Ubiscan ubiquitinated peptide quantification in T cells; type: cell-based
Excerpt: The effects of lenalidomide and pomalidomide on protein ubiquination were investigated using CST Ubiscan technology. Treated samples were sent to Cell Signaling Technology for ubiquinated peptide enrichment and quantification by LC/MS/MS.

pRb = pRb phosphorylation in H929 cells (Western blot); type: cell-based
H929 cells = assay: Cell cycle progression (cells in S phase) in siRNA-transfected H929 cells; type: cell-based; conditions: 72 h treatment
Procedure: The effect of CRBN in H929 cells was also evaluated. H929 cells were transfected with mock, negative control siRNA and CRBN-siRNA-7 for 24, 48, 72 and 96 h. Cells were treated 24 h after transfection with DMSO (0.1%), pomalidomide (1 μM), lenalidomide (10 μM) or 3-(5-amino-2-methyl-4-oxo-4H-quinazolin-3-yl)-piperidine-2,6-dione (“Compound B”) for 1, 2, 3 days and the effect on cell cycle and proliferation investigated. Lenalidomide, pomalidomide and Compound B induced a delay of cell cycle progression, measured as the decrease of the number of cells in S phase, in control mock and negative control siRNA-transfected cells after 72 h treatment (FIG. 2C). Knockdown of CRBN markedly abrogated immunomodulatory drugs-induced delay in cell cycle progression in H929 cells (FIG. 2C) from of 50 to 4% for lenalidomide, from 70 to 15% for pomalidomide, and from 65 to 22% for Compound B.

IRF4 [2] = assay: IRF4 protein expression in ABC-DLBCL cells (Western blot); type: cell-based; conditions: OCI-Ly3 cells; 1-3 day treatments
Procedure: (§1) Cells were treated with test compounds or 0.1% DMSO for indicated times. Following incubation, cells were collected, pelleted with centrifugation, and immediately lysed in 0.1 ml lysis buffer containing 10 mM Tris-HCl pH 8.0, 10 mM EDTA, 150 mM NaCl, 1% NP-40, 0.5% SDS, 1 mM DTT, 1 mM Na3VO4, plus Complete protease inhibitor cocktail (Roche Applied Science, Indianapolis, Ind.), then processed with a Qiashredder™ (Qiagen, Valencia, Calif.) for 1 minute and frozen on dry ice. Samples were diluted with 6×SDS sample buffer and then boiled for 5 min. Approximately 30 μl of this mixture was loaded per lane on a Criterion Precast 4-12% Tris-HCl gel (Bio-Rad, Hercules, Calif.), electrophoresed, and transferred to nitrocellulose membranes (Bio-Rad, Hercules, Calif.). The membranes were blocked for 1 hour at room temperature using blocking buffer (LI-COR Biosciences, Lincoln, Nebr.), then incubated overnight at 4° C. with antibodies against either BCL-10, IRF4, CRBN or β-actin. Membranes were washed and incubated with IRDye Secondary Antibodies (1:30,000) for 1 hour at room temperature. A standard protocol was then followed for signal detection, using the Odyssey® Infrared Imaging System and software (LI-COR Biosciences, Lincoln, Nebr.).
To understand the molecular mechanism of lenalidomide on ABC-DLBCL cells, the effects of lenalidomide on IRF4 expression in these cells were investigated. […] Lenalidomide-induced decrease of IRF4 expression occurred as early as 1 day of drug treatment, with similar kinetics to that of the inhibitors (zVRPR-fmk and LY-333,531, respectively) of MALT1 and PKCβ, two key enzymes involved in NF-κB activation upon BCR engagement in B cells.

[3] = tested on: CARD11-BCL-10-MALT1 (CBM) complex; assay: MALT1-induced BCL-10 cleavage (CBM complex activity) in ABC-DLBCL cells; type: cell-based; conditions: OCI-Ly3 cells
Procedure: as §1
This mutation has been reported to cause constitutive formation and activation of CARD11-BCL-10-MALT1 (CBM) complex of BCR signaling pathway, leading to NF-κB overactivation in lymphoma cells. See Lenz, G., et al., Science 2008, 319: 1676-9; Thome, M. et al., Cold Spring Harb Perspect Biol. 2010; 2: a003004. To investigate the potential involvement of CBM complex in lenalidomide-induced IRF4 inhibition in these cells, the effect of lenalidomide on the complex activity was examined by measuring MALT1 paracaspase enzymatic activity. MALT1 is activated upon association with BCL-10 and CARD11 to form active CBM complex and then cleaves its binding partners, such as BCL-10.

CRBN [4] = molecular target: T1, CRBN (Homo sapiens, UniProt Q96SW2); assay: Binding of compounds to CRBN
U266 = assay: Ubiscan ubiquitinated peptide quantification in U266; type: cell-based
Excerpt: The effects of lenalidomide and pomalidomide on protein ubiquination were investigated using CST Ubiscan technology. Treated samples were sent to Cell Signaling Technology for ubiquinated peptide enrichment and quantification by LC/MS/MS. […] In the MG132 combo, more ubiquinated peptides are observed (compared with their controls). […] These peptides correspond to 176 unique proteins. Top few groups are: nucleosome, chromatin, protein-DNA complex assembly, Histone H2A. Among the 176 proteins, we found five proteins that belong to “ubiquitin-protein ligase activity” category, they are MDM2, HERC2, UBE2D3 (only by pomalidomide), UBE2N (lenalidomide only), UBE2M (both). Results for hits categorized by conditions are shown in FIGS. 8 & 9 (without MG132) and FIGS. 10 & 11 (with MG132).

poly-ubiquitin chains = assay: Global polyubiquitination by immunofluorescence in H929 cells; type: cell-based; conditions: 1 μM, 30 minutes
Procedure: Specific antibodies for poly-ubiquitin chains were used to study the effect of immunomodulatory drugs on global levels of ubiquitination. H929 cells were treated with lenalidomide (1 μM), pomalidomide (1 μM) or proteasome inhibitor MG132. After 30 minutes cells were process for immunofluorescence. Global levels of K63-linked polyubiquitination were quantified by Cellomics.

p21^WAF-1 = assay: p21WAF-1 mRNA and protein levels in U266B1 cells; type: cell-based; conditions: U266B1, control mock and negative control siRNA-transfected cells; pomalidomide 1 μM, lenalidomide 10 μM
Procedure: To further investigate the effects of CRBN on the cell cycle arrest induced by drugs we used RT-PCR and Western blot analysis to measure the levels of key cell cycle and apoptotic regulators. U266B1 cells were transfected with mock, negative control siRNA, CRBN-siRNA-7 and CRBN-siRNA-11 for 24, 48, 72 and 96 h (FIG. 3A). Cells were treated 24 h after transfection with DMSO (0.1%), pomalidomide (1 μM) and lenalidomide (10 μM) for 1, 2, 3 days and the effect on mRNA and protein levels of the cyclin-dependent kinase (CDK) inhibitor p21^WAF-1 were evaluated. It has been shown that lenalidomide- and pomalidomide-induced cell cycle arrest is dependent on up-regulation of p21^WAF-1 in […]. […] However, knockdown of CRBN prevents the induction of p21^WAF-1 indicating the successful abrogation of G1 arrest and renewal of S phase progression (FIGS. 3C & 3D).

CRBN [5] = assay: CRBN mRNA and protein expression after drug treatment (RT-PCR, Western blot); type: cell-based; conditions: H929 and U266B1 cells; pomalidomide 1 μM, lenalidomide 10 μM
U266B1 cells [6] = assay: Gene expression profile by microarray in U266B1 cells; type: cell-based; conditions: negative control siRNA-transfected U266B1 cells; pomalidomide 1 μM, lenalidomide 10 μM; ±1.7 fold, P<0.05
Procedure: Gene expression profile using microarray technology identified 759 or 609 genes differentially modulated in negative control siRNA-transfected U266B1 cells treated with pomalidomide (1 μM) or lenalidomide (10 μM) compared to DMSO treated control (±1.7 fold; P<0.05 ANOVA p-value) (FIGS. 5A & 5B).

U266B1 cells [7] = assay: Cell cycle progression (cells in S phase) in siRNA-transfected U266B1 cells; type: cell-based; conditions: control mock and negative control siRNA-transfected cells; average of 3 days of treatment; pomalidomide 1 μM, lenalidomide 10 μM
Procedure: Drugs such as lenalidomide and pomalidomide have direct anti-proliferative activity against MM cells by inducing cell cycle arrest in G1 phase, followed by a decrease in viability. To study the role of CRBN in lenalidomide and other drugs anti-proliferative activities, H929 and U266B1 cells, two sensitive myeloma lines, were transfected with CRBN-siRNAs or control siRNAs for 24, 48, 72 and 96 hours. Cells were treated 24 h after transfection with DMSO (0.1%), pomalidomide (1 μM) and lenalidomide (10 μM) for 1, 2, 3 days to evaluated the compound effect on CRBN protein, mRNA expression and the effect on cell cycle and proliferation. […] CRBN down regulation was confirmed by RT-PCR and Western blot using the CRBN70 antibody (FIG. 1).
Knockdown of CRBN markedly abrogated the lenalidomide and pomalidomide-induced delay in cell cycle progression in U266B1 cells. Id.

CRBN [8] = molecular target: T1, CRBN; assay: Denaturing immunoblot with CGN-6-4-5; type: binding; design: endogenous in cells; host or cells: DF15 myeloma cells (endogenous); HEK293 cells expressing recombinant flag-tagged CRBN on the same blot
Procedure: CGN-6-4-5 was diluted 1:10,000 dilution in 0.1% Tween PBS buffer. An exemplary immunoblot with myeloma cells containing endogenous CRBN (DF15), DF15R with no CRBN and HEK293 cells expressing recombinant flag-tagged CRBN is shown in FIG. 38. Peptide neutralization was performed by combining antibody with a five-fold (by weight) excess of blocking peptide in 500 μl PBS and incubating with constant rotation at room temperature for 2 hours.

[9] = H929 cells with knockdown of CRBN
[10] = control mock and negative control siRNA-transfected H929 cells

T1 sequence (Q96SW2 whole entry): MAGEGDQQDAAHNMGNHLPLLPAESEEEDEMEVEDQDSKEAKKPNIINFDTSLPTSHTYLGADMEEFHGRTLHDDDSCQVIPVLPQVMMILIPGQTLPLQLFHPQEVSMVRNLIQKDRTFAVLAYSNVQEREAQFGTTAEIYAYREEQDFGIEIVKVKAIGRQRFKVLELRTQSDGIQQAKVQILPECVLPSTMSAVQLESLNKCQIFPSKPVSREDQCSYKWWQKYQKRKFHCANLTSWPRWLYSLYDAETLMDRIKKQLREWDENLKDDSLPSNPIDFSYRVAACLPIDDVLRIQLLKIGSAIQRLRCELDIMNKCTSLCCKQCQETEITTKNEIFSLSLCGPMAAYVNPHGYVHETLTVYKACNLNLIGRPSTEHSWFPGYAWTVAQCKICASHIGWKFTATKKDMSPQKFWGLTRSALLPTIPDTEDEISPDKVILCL

## Cl.NCCC(=O)NCc1cccc2c1C(=O)N(C1CCC(=O)NC1=O)C2=O (stereo not drawn) [Compound A]
TNF
  IC50: 622 nM
Jurkat IL-2
  Jurkat IL-2 EC200: 3.47 µM

## Cc1nc2cccc(N)c2c(=O)n1C1CCC(=O)NC1=O (stereo not drawn) [Compound B, 3-(5-amino-2-methyl-4-oxo-4H-quinazolin-3-yl)-piperidine-2,6-dione]
IRF4 [1]
  total level of protein IRF4: decreased
T cells
  Ub-proteins increased in abundance: IKZF3, RPL19, PCM1 and NEDD8
  proteins decreased in abundance: GNB2L1 and HNRNPR
  ubiquinated peptides of greater abundance vs. DMSO control: SECTM1 and ZC3H15
pRb
  phosphorylation of pRB: decreased
H929 cells; [9]
  delay in cell cycle progression (decrease of the number of cells in S phase): 22%
H929 cells; [10]
  delay in cell cycle progression (decrease of the number of cells in S phase): 65%

## CN(C)C[C@@H]1CCn2cc(c3ccccc32)C2=C(C(=O)NC2=O)c2cn(c3ccccc23)CCO1 [PKCβ inhibitor, LY-333,531]
IRF4 [2]
  IRF4 levels: neither lenalidomide nor the PKCβ inhibitor had any appreciable effect
[3]
  BCL-10 cleavage: neither the PKCβ inhibitor nor lenalidomide had any effect

## C[C@]1(N2C(=O)c3cccc(N)c3C2=O)CCC(=O)NC1=O [S-methyl-pomalidomide]
CRBN [4]
  affinity for CRBN (enantiomers compared): greater affinity for CRBN than R-methyl-pomalidomide

## Nc1cccc2c1C(=O)N(C1CCC(=O)NC1=O)C2=O (stereo not drawn) [pomalidomide, 4-amino-2-(2,6-dioxopiperidin-3-yl)-1H-isoindole-1,3-dione]
U266
  Ub-proteins increased in abundance: IKZF3, RPL19, PCM1 and NEDD8
  proteins decreased in abundance: GNB2L1 and HNRNPR
IRF4 [1]
  total level of protein IRF4: decreased
poly-ubiquitin chains
  K-63-linked ubiquitination: but not K-63-linked ubiquitination
  total K48-linked polyubiquitination: decrease
p21^WAF-1
  p21 level: up-regulated
CRBN [5]
  mRNA and protein expression of CRBN: affected neither mRNA nor protein expression of CRBN significantly
U266B1 cells [6]
  genes differentially modulated compared to DMSO treated control: 759 genes
pRb
  phosphorylation of pRB: decreased
U266B1 cells [7]
  delay of cell cycle progression, measured as the decrease of the number of cells in S phase: 50%
H929 cells; [9]
  delay in cell cycle progression (decrease of the number of cells in S phase): 15%
H929 cells; [10]
  delay in cell cycle progression (decrease of the number of cells in S phase): 70%

## O=C1NC(=O)c2ccccc21 [pthalimide]
CRBN [4]
  binding to CRBN: did not

## zVRPR-fmk [MALT1 inhibitor]
IRF4 [2]
  IRF4 levels: complete inhibition

B1: CGN-6-4-5: rabbit monoclonal anti-CRBN antibody, heavy chain SEQ ID NO:9, light chain SEQ ID NO:11 (antibody)
heavy: METGLRWLLLVAVLKGVQCQSVEESGGRLVTPGTPLTLTCTVSGFSLSRYGVSWVRQAPGKGLEHIGYIYSDPGMTFYATWAKGRFTISKTSSTTVDLKMTSPTIEDTATYFCARGTPLASYSTWGPGTLVTISLGQPKAPSVFPLAPCCGDTPSSTVTLGCLVKGYLPEPVTVTWNSGTLTNGVRTFPSVRQSSGLYSLSSVVSVTSSSQPVTCNVAHPATNTKVDKTVAPSTCSKPTCPPPELLGGPSVFIFPPKPKDTLMISRTPEVTCVVVDVSQDDPEVQFTWYINNEQVRTARPPLREQQFNSTIRVVSTLPIAHQDWLRGKEFKCKVHNKALPAPIEKTISKARGQPLEPKVYTMGPPREELSSRSVSLTCMINGFYPSDISVEWEKNGKAEDNYKTTPAVLDSDGSYFLYSKLSVPTSEWQRGDVFTCSVMHEALHNHYTQKSISRSPGK
light: MDTRAPTQLLGLLLLWLPGATFAQVLTQTPASVSAAVGGTVTINCQSSENIYKNNYLSWFQQKPGQPPKLLIYQASTLASGVPSRFKGSGSGTRFSLTISDLECDDAATYYCAGGYSGNIFTFGGGTEVVVKGDPVAPTVLIFPPAADQVATGTVTIVCVANKYFPDVTVTWEVDGTTQTTGIENSKTPQNSADCTYNLSSTLTLTSTQYNSHKEYTCKVTQGTTSVVQSFNRGDC
CRBN [8]
  recognition of CRBN on denaturing immunoblots: specifically recognizes the full-length 51 kDa human CRBN protein

From patent publication US10047151B2, “Methods for the treatment of cancer and inflammatory diseases using cereblon as a predictor” (Celgene Corporation, priority 2011, dated 2018)
